pEC50, pIC50: −log10 of the molar value.

Experimental findings from patent publication US20260242391A1 (priority 2023, published 2026) are described below.

The subject of one data set is HL-60. In words: HL-60 differentiation potency. The format is cell-based. To be noted: Homo sapiens.
The next data set in a line: in vitro. To be noted: human.

As to `C[C@H]1[C@H](N(C)CCS(C)(=O)=O)O[C@@H]2O[C@@]3(C)CC[C@H]4[C@H](C)CC[C@@H]1[C@@]24OO3` [Compound 17, (3R,5aS,6R,8aS, 9R,10R,12R, 12aR)-N,3,6,9-tetramethyl-N-(2-(methylsulfonyl)ethyl)decahydro-12H-3,12-epoxy [1,2]dioxepino [4,3-i] isochromen-10-amine], the pEC50 (commonly −log10 of the EC50, conventionally taken in molar units) in the data set on HL-60 was 7.02. For the same compound, the pIC50 (as a rule, −log10 of the IC50, conventionally taken in molar units) in “in vitro” was 6.61.

`C[C@H]1[C@H](OCc2ccc(-c3nn[nH]n3)cc2)O[C@@H]2O[C@@]3(C)CC[C@H]4[C@H](C)CC[C@@H]1[C@@]24OO3` [Compound 2, 5-(4-((((3R,5aS,6R, 8aS,9R,10R,12R, 12aR)-3,6,9-trimethyldeca-hydro-12H-3,12-epoxy[1,2]dioxepino[4,3-i]isochromen-10-yl)oxy)methyl)phenyl)-2H-tetrazole] showed a pEC50 in the data set on HL-60 of 7.38. Further, the negative-log IC50 (pIC50) in the data set “in vitro” is 7.23.

Take `C[C@H]1[C@@H](Oc2ccc(C(=O)N3CC(C(=O)O)C3)cc2)O[C@@H]2O[C@@]3(C)CC[C@H]4[C@H](C)CC[C@@H]1[C@@]24OO3` [Compound 149, 1-(4-(((3R,5aS,6R,8aS, 9R,10S,12R, 12aR)-3,6,9-trimethyldeca-hydro-12H-3,12-epoxy[1,2]dioxepino[4,3-i]isochromen-10-yl)oxy)benzoyl) azetidine-3-carboxylic acid]: the negative logarithm of the EC50 (pEC50) with HL-60 is 5.91. The compound further had a pIC50 in the data set “in vitro” of less than 4.70.

Compound `C[C@H]1[C@H](OCCCc2ccc(C(=O)O)cc2)O[C@@H]2O[C@@]3(C)CC[C@H]4[C@H](C)CC[C@@H]1[C@@]24OO3` [Compound 21, 4-(3-(((3R,5aS,6R,8aS, 9R,10R,12R, 12aR)-3,6,9-trimethyldeca-hydro-12H-3,12-epoxy[1,2]dioxepino[4,3-i]isochromen-10-yl)oxy)propyl) benzoic acid] gave a pEC50 in the data set with HL-60 of 6.91. The negative logarithm of the IC50 (pIC50) in the data set “in vitro” is less than 4.70.

With `C[C@H]1[C@@H](OCC2(C(=O)O)CCC2)O[C@@H]2O[C@@]3(C)CC[C@H]4[C@H](C)CC[C@@H]1[C@@]24OO3` [Compound 127, 1-((((3R,5aS,6R, 8aS,9R,10S,12R, 12aR)-3,6,9-trimethyldeca-hydro-12H-3,12-epoxy[1,2]dioxepino[4,3-i]isochromen-10-yl)oxy)methyl) cyclobutane-1-carboxylic acid], the pEC50 in the data set with HL-60 is 5.05. The negative logarithm of the IC50 (pIC50) in the data set “in vitro” is less than 4.70.

Compound `C[C@H]1[C@H](OCC(=O)N2C[C@H](F)C[C@H]2C(=O)O)O[C@@H]2O[C@@]3(C)CC[C@H]4[C@H](C)CC[C@@H]1[C@@]24OO3` [Compound 159, (2S,4R)-4-fluoro-1-(2-(((3R,5aS,6R,8aS, 9R,10R,12R, 12aR)-3,6,9-trimethyldeca-hydro-12H-3,12-epoxy[1,2]dioxepino[4,3-i]isochromen-10-yl)oxy)acetyl) pyrrolidine-2-carboxylic acid] gave a pEC50 in the data set with HL-60 of less than 4.70. In the data set “in vitro”, the pIC50 is less than 4.70.

The compound `C[C@H]1[C@H](OCc2ccc(C(=O)O)c(F)c2)O[C@@H]2O[C@@]3(C)CC[C@H]4[C@H](C)CC[C@@H]1[C@@]24OO3` [Compound 39, 2-fluoro-4-((((3R,5aS,6R,8aS, 9R,10R,12R, 12aR)-3,6,9-trimethyldeca-hydro-12H-3,12-epoxy[1,2]dioxepino[4,3-i]isochromen-10-yl)oxy)methyl) benzoic acid] had a pEC50 in the data set on HL-60 of 6.20. This compound had a pIC50 in the data set “in vitro” of less than 4.70.

As to `C[C@H]1[C@@H](Oc2cccc(CC(=O)O)c2)O[C@@H]2O[C@@]3(C)CC[C@H]4[C@H](C)CC[C@@H]1[C@@]24OO3` [Compound 20, 2-(3-(((3R,5aS,6R, 8aS,9R,10S,12R, 12aR)-3,6,9-trimethyldeca-hydro-12H-3,12-epoxy[1,2]dioxepino[4,3-i]isochromen-10-yl)oxy)phenyl) acetic acid], the pEC50 in the data set with HL-60 is 6.93. The compound further gave a pIC50 in the data set “in vitro” of 5.08.

Regarding `CCN(CC)Cc1ccc(C(C)O[C@@H]2O[C@@H]3O[C@@]4(C)CC[C@H]5[C@H](C)CC[C@@H]([C@H]2C)[C@@]35OO4)cc1O` (stereo partly drawn) [Compound 47, 2-((diethylamino)methyl)-5-(1-(((3R,5aS,6R,8aS, 9R,10R,12R, 12aR)-3,6,9-trimethyldeca-hydro-12H-3,12-epoxy[1,2]dioxepino[4,3-i]isochromen-10-yl)oxy)ethyl) phenol], the pEC50 with HL-60 is 5.77. In “in vitro”, this compound had a pIC50 of 5.39.

In the data set on HL-60, `C[C@H]1[C@H](N2CCC(C(=O)O)CC2)O[C@@H]2O[C@@]3(C)CC[C@H]4[C@H](C)CC[C@@H]1[C@@]24OO3` [Compound 64, 1-((3R,5aS,6R,8aS, 9R,10R,12R, 12aR)-3,6,9-trimethyldeca-hydro-12H-3,12-epoxy[1,2]dioxepino[4,3-i]isochromen-10-yl)piperidine-4-carboxylic acid] showed a pEC50 of less than 4.70. In the data set “in vitro”, this compound showed a pIC50 of less than 4.70.

Consider `C[C@H]1[C@H](OCC2CCC(C(=O)O)CC2)O[C@@H]2O[C@@]3(C)CC[C@H]4[C@H](C)CC[C@@H]1[C@@]24OO3` (stereo partly drawn) [Compound 42, (1S,4s)-4-((((3R,5aS,6R, 8aS,9R,10R,12R, 12aR)-3,6,9-trimethyldeca-hydro-12H-3,12-epoxy[1,2]dioxepino[4,3-i]isochromen-10-yl)oxy)methyl) cyclohexane-1-carboxylic acid], for which the negative logarithm of the EC50 (pEC50) with HL-60 is 6.11. This compound also gave a pIC50 in “in vitro” of less than 4.70.

The compound `C[C@H]1[C@@H](Oc2ccc(CC(=O)O)c(F)c2)O[C@@H]2O[C@@]3(C)CC[C@H]4[C@H](C)CC[C@@H]1[C@@]24OO3` [Compound 26, 2-(2-fluoro-4-(((3R,5aS,6R, 8aS,9R,10S,12R, 12aR)-3,6,9-trimethyldeca-hydro-12H-3,12-epoxy[1,2]dioxepino[4,3-i]isochromen-10-yl)oxy)phenyl) acetic acid] had a pEC50 with HL-60 of 6.65. For the same compound, in “in vitro”, the negative logarithm of the IC50 (pIC50) was less than 4.70.

Compound `C[C@H]1[C@H](NCCCS(C)(=O)=O)O[C@@H]2O[C@@]3(C)CC[C@H]4[C@H](C)CC[C@@H]1[C@@]24OO3` [Compound 100, (3R,5aS,6R,8aS, 9R,10R,12R, 12aR)-3,6,9-trimethyl-N-(3-(methylsulfonyl)propyl)deca-hydro-12H-3,12-epoxy[1,2] dioxepino[4,3-i] isochromen-10-amine] had a pEC50 with HL-60 of 6.30. This compound had a pIC50 in “in vitro” of 6.27.

Regarding `C[C@H]1[C@@H](OC[C@H]2CC[C@@H](C(=O)O)C2)O[C@@H]2O[C@@]3(C)CC[C@H]4[C@H](C)CC[C@@H]1[C@@]24OO3` [Compound 136, (1R,3S)-3-((((3R,5aS,6R, 8aS,9R,10S,12R, 12aR)-3,6,9-trimethyldeca-hydro-12H-3,12-epoxy[1,2]dioxepino[4,3-i]isochromen-10-yl)oxy)methyl) cyclopentane-1-carboxylic acid], the pEC50 in the data set with HL-60 was 6.71. Moreover, the negative-log IC50 (pIC50) in the data set “in vitro” was less than 4.70.

In turn, `C[C@H]1[C@H](NCCc2ccccc2)O[C@@H]2O[C@@]3(C)CC[C@H]4[C@H](C)CC[C@@H]1[C@@]24OO3` [Compound 94, (3R,5aS,6R,8aS, 9R,10R,12R, 12aR)-3,6,9-trimethyl-N-phenethyldeca-hydro-12H-3,12-epoxy[1,2] dioxepino[4,3-i] isochromen-10-amine] showed a pEC50 in the data set on HL-60 of 6.59. In “in vitro”, this compound had a pIC50 of 6.50.

Turning to `COc1cc(CC(=O)O)ccc1O[C@H]1O[C@@H]2O[C@@]3(C)CC[C@H]4[C@H](C)CC[C@@H]([C@H]1C)[C@@]24OO3` [Compound 3, 2-(3-methoxy-4-(((3R,5aS,6R, 8aS,9R,10S,12R, 12aR)-3,6,9-trimethyldeca-hydro-12H-3,12-epoxy[1,2]dioxepino[4,3-i]isochromen-10-yl)oxy)phenyl) acetic acid], the negative-log EC50 (pEC50) in the data set on HL-60 was 7.37. Further, in the data set “in vitro”, the pIC50 is less than 4.70.

In the case of `C[C@H]1[C@@H](Oc2ccc(CC(=O)OC(C)(C)C)cc2)O[C@@H]2O[C@@]3(C)CC[C@H]4[C@H](C)CC[C@@H]1[C@@]24OO3` [Compound 132, tert-butyl 2-(4-(((3R,5aS,6R,8aS, 9R,10S,12R, 12aR)-3,6,9-trimethyldeca-hydro-12H-3,12-epoxy[1,2]dioxepino[4,3-i]isochromen-10-yl)oxy)phenyl) acetate], the negative-log EC50 (pEC50) with HL-60 is 7.91. In “in vitro”, this compound had a negative logarithm of the IC50 (pIC50) of 8.00.

On to `C[C@H]1[C@H](N2CCC(C(=O)NC3CS(=O)(=O)C3)CC2)O[C@@H]2O[C@@]3(C)CC[C@H]4[C@H](C)CC[C@@H]1[C@@]24OO3` [Compound 65, N-(1,1-dioxidothietan-3-yl)-1-((3R,5aS,6R,8aS, 9R,10R,12R, 12aR)-3,6,9-trimethyldeca-hydro-12H-3,12-epoxy[1,2]dioxepino[4,3-i]isochromen-10-yl)piperidine-4-carboxamide], for which, in the data set with HL-60, the pEC50 was less than 4.70. Besides, the negative logarithm of the IC50 (pIC50) in “in vitro” was less than 4.70.

`Cc1cc(CO[C@H]2O[C@@H]3O[C@@]4(C)CC[C@H]5[C@H](C)CC[C@@H]([C@H]2C)[C@@]35OO4)ccc1C(=O)O` [Compound 41, 2-methyl-4-((((3R,5aS,6R, 8aS,9R,10S,12R, 12aR)-3,6,9-trimethyldeca-hydro-12H-3,12-epoxy[1,2]dioxepino[4,3-i]isochromen-10-yl)oxy)methyl) benzoic acid] had a pEC50 in the data set with HL-60 of 6.13. This compound gave a negative logarithm of the IC50 (pIC50) in “in vitro” of less than 4.70.

On to `C[C@H]1[C@H](OCC2CCC(F)(F)CC2)O[C@@H]2O[C@@]3(C)CC[C@H]4[C@H](C)CC[C@@H]1[C@@]24OO3` [Compound 105, (3R,5aS,6R,8aS, 9R,10R,12R, 12aR)-10-((4,4-difluorocyclo-hexyl)methoxy)-3,6,9-trimethyldeca-hydro-12H-3,12-epoxy[1,2] dioxepino[4,3-i] isochromene], for which, in the data set on HL-60, the negative-log EC50 (pEC50) was 7.32. The compound further showed a pIC50 in the data set “in vitro” of 6.70.

For `C[C@H]1[C@H](N2CC[C@@H](C(=O)O)C2)O[C@@H]2O[C@@]3(C)CC[C@H]4[C@H](C)CC[C@@H]1[C@@]24OO3` [Compound 69, (R)-1-((3R,5aS,6R,8aS, 9R,10R,12R, 12aR)-3,6,9-trimethyldeca-hydro-12H-3,12-epoxy[1,2]dioxepino[4,3-i]isochromen-10-yl)pyrrolidine-3-carboxylic acid], the pEC50 in the data set with HL-60 was less than 4.70. In the data set “in vitro”, the negative-log IC50 (pIC50) was less than 4.70.

The compound `C[C@H]1[C@@H](OCCS(C)(=O)=O)O[C@@H]2O[C@@]3(C)CC[C@H]4[C@H](C)CC[C@@H]1[C@@]24OO3` [Compound 90, (3R,5aS,6R,8aS, 9R,10S,12R, 12aR)-3,6,9-trimethyl-10-(2-(methylsulfonyl)ethoxy)deca-hydro-12H-3,12-epoxy[1,2] dioxepino[4,3-i] isochromene] showed a pEC50 with HL-60 of less than 4.70. The same compound gave a negative logarithm of the IC50 (pIC50) in the data set “in vitro” of less than 4.70.
